Source: patent publication EP0574185B1, “PGE1 analogs” (NEWPHARMA INTERNATIONAL CORPORATION, priority 1992, dated 1993)

Experiments:
rat uterus = test: Disappearance of exogenous PGF2α in rat uterus slices (R.I.A.); design: species or system Wistar rats
Experimental: An experiment was performed in which the disappearance of exogenous PGF2α was determined in the nutrient solution of slices of rat uterus both in the presence and absence of the synthetic PGE1 analog, B-407.
Seven Wistar rats weighing approximately 220 g were estrogenized by the subcutaneous administration of 100 µg/kg of 17β estradiol. Twenty-four hours later they were killed by decapitation. The uterine horns were dissected out and weighed. The horns were cut and washed with bubbled De Jalon nutrient solution plus 4x10^-7 M sodium diclofenac during 15 to 20 minutes. Both bubbling and diclofenac content were maintained in the following steps: each horn was then placed in a small organ bath and preincubated during 15 to 20 min with either the nutrient solution alone or containing B-407 10^-8 M or 10^-7 M. The assay was started by adding exogenous PGF2α (10^-8 M in the medium) to each horn previously changed to a new tube. A final volume of 0.4 ml was obtained with the addition of De Jalon solution at 37°C. Aliquots of […] were sampled at 0 min, 5 min, 15 min and 30 min. The PGF2α concentration in each sample was determined by R.I.A. (Sigma, NEN) and it was expressed as pg/mg of wet tissue.

guinea pigs = test: Histamine-aerosol induced bronchoconstriction in guinea pig; format: in vivo; settings: 150 µg/kg, i.p., 5 minutes before histamine challenge; n= 8; initial 115 ± 6, final 127 ± 4
Experimental: The protective effect of B-407 on the bronchoconstriction induced by histamine aerosol in male guinea pigs weighing 700 g was evaluated. One guinea pig at a time was placed into a 15 l hermetically closed container. Then 200 µl of histamine solution (600 µg of histamine base) was sprayed with compressed air at a pressure of 1 PSI. The time at which the hypoxic symptoms (increase of breathing frequency, bronchospasm, dysnea, apnea and finally the collapse of the animal (falling down) was determined.
The working protocol comprised 3 parts: • 1) The determination of the falling down time of the guinea pigs exposed to the histamine aerosol was determined.
The results were expressed as the time in seconds elapsed before the animals fell down ["Antihistamine Agents" (Cap. 22) in: "Screening Methods in Pharmacology". Academic Press, New York (1965). Brit. J. Pharmacology. 16, 59 (1961); Arch. Intern. Pharmacodyn. 129, 77 (1960); J. Pharmacol. Exptl. Therap. 131, 73 (1961); Arch. Intern. Pharmacodyn. 115, 332 (1958); "Les Antihistaminiques de Synthése", Chapter 22, page 784 in : "Structure et activité pharmacodynamique de medicaments du systéme nerveux vegetatif". S. Karger Bale (Suisse)- New York: (1948)].

[1] = tested on: rat uterus under estrous condition; test: C1: effect on PGF2α induced in vitro contraction of rat uterus under estrous condition; settings: PGF2α 10^-8 M, nutrient solution 0,84
Experimental: The experimental conditions were identical to those described in part A for the concentration-response curves without spontaneous contractions.
The uterus was allowed to equilibrate in a 10^-8 M PGF2α solution for 2 minutes, then the uterus was washed again during 15 minutes. This whole treatment was repeated twice.
Then, a known concentration of the test prostaglandin was added and no washing was carried out during the following 15 minutes. PGF2α (10^-8 M) was added, washing once after 2 minutes and then twice over a total time period of 15 minutes. The result was expressed as the relationship between the effect of PGF2α after the treatment with B-407 and the sum of the effect of PGF2α (mean of the three initial additions) and the effect of B-407 "per se". The recordings of the contractions and their quantitation were performed as described in (A).
* p < 0.05: Tested vs. nutrient solution by ANOVA and Scheffe. ** p < 0.02: Tested vs. nutrient solution by Student's-t-test. Ratio = Effect of PGF2α after B-407/(Effect of PG F2α before B-407 + Effect of B-407). S.E. = Standard Error
(§1) The frequency and magnitude of the responses were globally evaluated by calculating the total area recorded at a fixed time period as will be further explained. The areas under the curve of the recording paper, over 15 minutes periods, were cut and weighed both in the concentration-response curves and in the potentiating experiments.
(§2) The calibration was made by weighing a piece of paper which corresponded to a tension of 1 g at the working sensitivity along 2 minutes. Therefore, a relationship of area expressed in g/2 min was obtained and then the weights of the areas of the responses were transformed to unities of area. The results were expressed as the mean ± the standard error of the areas obtained. The statistical evaluation of the differences was carried out either by ANOVA or by Student's-t-test, as appropriate.

Swiss male mice = test: Motor activity in mice (rota-rod); settings: 100 µg/kg, i.p., 15 min prior to the test; vehicle 0/10
[2] = tested on: isolated uterus of estrogenized rats; test: Effect on isolated uterus of estrogenized rats (non-cumulative concentration-response curves); design: species or system Wistar rats; settings: for Area (g of tension/2 min): average
Experimental: Concentration-response curves were carried out on isolated uterus of estrogenized rats. Female Wistar rats weighing 250g to 300g were employed. The animals were pretreated with 0.1 mg/kg of estradiol, subcutaneously, 24 h before the experiment. The whole uterus was dissected and excised and a portion of 1 cm of one horn was incubated in a 10 ml organ bath, at 30°C, bubbled with a mixture of 95 % O2 plus 5 % CO2. The nutrient solution was De Jalon solution described in the International Pharmacopea II^nd Ed. and containing 4x10^-7 M sodium diclofenac. The organ was left to stabilize in the solution for one hour. No spontaneous contractions were detected under these experimental conditions. To carry out the concentration-response curves, volumes of solutions of either natural prostaglandins or B-407 were added in order to obtain concentrations in the organ bath between 10^-10 M and 3x10^-6 M. After 2 minutes, the organ was washed three times during a 15 minutes time period before adding the next test solution. In this way the concentration-response curves obtained were not cumulative ["The rat uterus preparation" in "Pharmacological Experiments on Isolated Preparations". E. and S. Livingstone Ltd. Edinburgh and London (1968), p. 92].
Recording of the contractions of the isolated uterus were on a Berger polygraph with a FT03C transducer. The frequency and magnitude of the responses were globally evaluated by calculating the total area recorded at fixed time periods as will be further explained.
as §1, §2

Which “PGF2α (pg/mg tissue)” value (rat uterus; B-407 10^-7 M, time 0 min, control 655,4) does the source give for CCCCC(C)(O)C/C=C/[C@H]1[C@H](O)CC(=O)[C@@H]1CCCC/C=C/C(=O)OC (mixture of isomers) [B-407, trans-Δ^2-15-deoxy-16-hydroxy-16-methyl PGE1 methyl ester] here?
Its value is 667,2 pg/mg tissue.

What about the “PGF2α (pg/mg tissue)” value (rat uterus; B-407 10^-7 M, time 5 min, control 582.8) of the same compound?
The value was 623,7 pg/mg tissue.

What about the “PGF2α (pg/mg tissue)” value (rat uterus; B-407 10^-7 M, time 15 min, control 478.4) of the same compound?
The value was 561,7 pg/mg tissue.

And the “PGF2α (pg/mg tissue)” value (rat uterus; B-407 10^-7 M, time 30 min, control 227.5)?
The value was 528,4 pg/mg tissue.

What about the “PGF2α (pg/mg tissue)” value (rat uterus; B-407 10^-8 M, time 0 min, control 655,4) of the same compound?
Its value is 705,7 pg/mg tissue.

And the “PGF2α (pg/mg tissue)” value (rat uterus; B-407 10^-8 M, time 5 min, control 582.8)?
The value was 705,9 pg/mg tissue.

And the “PGF2α (pg/mg tissue)” value (rat uterus; B-407 10^-8 M, time 15 min, control 478.4)?
The value was 563,6 pg/mg tissue.

And the “PGF2α (pg/mg tissue)” value (rat uterus; B-407 10^-8 M, time 30 min, control 227.5)?
Its value is 403,7 pg/mg tissue.

And the “Falling down time (sec) by bronchospasm” value (guinea pigs)?
The value was 358 ± 4 s.

And the “Ratio = Effect of PGF2α after B-407/(Effect of PG F2α before B-407 + Effect of B-407)” value (shortened to “Ratio = Effect of PGF2α”) ([1]; B-407 3x10^-7 M, p < 0.05)?
Its value is 2,06.

And the “Ratio = Effect of PGF2α” value ([1]; B-407 3x10^-8 M)?
The value was 1,69.

What about the “Ratio = Effect of PGF2α” value ([1]; B-407 3x10^-9 M) of the same compound?
Its value is 1,29.

And the “Fraction (animals fallen before 300 sec/total number of animals)” value (Swiss male mice)?
The value was 1/10.

What about the “Area (g of tension/2 min)” value ([2]; 1x10^-6 M, n=6) of the same compound?
The value was 1,13 g of tension/ 2 min.

What about the “Area (g of tension/2 min)” value ([2]; 1x10^-7 M, n=6) of the same compound?
The value was 0,31 g of tension/ 2 min.

What about the “Area (g of tension/2 min)” value ([2]; 1x10^-8 M, n=6) of the same compound?
The value was 0,20 g of tension/ 2 min.

What about the “Area (g of tension/2 min)” value ([2]; 1x10^-9 M, n=6) of the same compound?
Its value is 0,12 g of tension/ 2 min.

What about the “Area (g of tension/2 min)” value ([2]; 1x10^-10 M, n=6) of the same compound?
Its value is 0,14 g of tension/ 2 min.

What about the “Area (g of tension/2 min)” value ([2]; 3x10^-6 M, n=5) of the same compound?
The value was 0,67 g of tension/ 2 min.

And the “times less potent than PGE1 on rat uterine contractility in vitro” value ([2]; PGE1 results are not shown)?
Its value is “about 4 times”.
